Measurements from patent publication US5204471A, “α-trifluoromethyl-substituted, saturated bicyclic amines” (Bayer Aktiengesellschaft, priority 1991, dated 1993).

Key:
[1] = molecular target: T1, HIV protease (Human immunodeficiency virus type 1 group M subtype B, UniProt P04585); test: HIV-specific protease enzyme test (cleavage of synthetic Gag peptide, RP HPLC); format: biochemical; details: purified HIV protease, HIV-1, synthetic peptide substrate; read-out: IC50 value (concentration causing 50% inhibition of the protease activity)
T1 construct: purified HIV protease
Procedure: HIV-specific protease enzyme test according to J. Hansen, S. Billich, T. Schulze, S. Sukrow and K. Molling, EMBO Journal, Vol. 7, No. 6, pages […] (1988).
This test was carried out by incubation of purified HIV protease with synthetic peptide which imitates a cleavage site in the Gag precursor protein and represents an in vivo cleavage point of the HIV protease. The resulting cleavage products of the synthetic peptide were analysed by reversed-phase high performance liquid chromatography (RP HPLC). The compound obtained according to Example 11 gave an IC50 value of 5×10^-8 with HIV-1. The IC50 value indicates the concentration of the substance causing 50% inhibition of the protease activity under the test conditions.

[2] = test system: HIV; test: HIV test in a cell culture (syncytia formation in infected PBLs); format: cell-based; details: Human immunodeficiency virus 1, Lymphocyte, 72 h; HIV-infected normal human blood lymphocytes (PBLs), evaluated day 3 to 6 after infection; read-out: IC50 value (PBL), 50% suppression of virus-induced syncytia
Procedure: HIV test in a cell culture with slight modifications according to Pauwels et al., Journal of Virological Methods 20, pages 309-321 (1988).
Normal human blood lymphocytes (PBLs) were concentrated via Ficoll-Hypaque and stimulated with phytohaemagglutinin (90 μg/ml) and interleukin-2 (40 U/ml) in RPMI 1640, 20% fetal calf serum. For infection with the infectious HIV, the PBLs were pelletised, and the cell pellet was then suspended in 1 ml of HIV virus adsorption solution and incubated at 37° C. for 1 hour.
The virus adsorption solution was centrifuged, and the infected cell pellet was taken up in growth medium in such a manner that 1×10^5 cells were present per ml. The cells infected in this manner were pipetted into the wells of 96-well microtitre plates in such a manner that each well contained 1×10^4 cells.
The first vertical row of the microtitre plate only contained growth medium and cells which were not infected but otherwise had been treated in the same manner as described above (cell control). The second vertical row of the microtitre plate only contained HIV-infected cells (virus control) in growth medium. […]
The test batches were incubated at 37° C. until the formation of syncytia typical for HIV occurred in the untreated virus control (between day 3 and 6 after infection), which formation was then evaluated under a microscope. […]

IC50 [1]: 50 nM
Structure (SMILES): CC(C)[C@H](NC(=O)[C@H](Cc1cccc2ccccc12)CS(=O)(=O)C(C)(C)C)C(=O)N[C@@H](Cc1ccccc1)C(O)CN1CCC2CCCCC2C1C(F)(F)F (some centres unmarked) [Example 11]
IC50 [2]: 2500 nM
